Test results: ChEMBL document CHEMBL1201862, “PubChem BioAssay data set” (2004)
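Grown in 96-well plates, cells were treated for 48 hours with each compound at five concentrations. Insufficient inhibition: endpoint recorded as highest concentration tested. GI50 = concentration required for 50% inhibition of growth.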 The source made the active and inactive calls. No stated cut-off is given here; in the data, active = GI50 up to about 1.1 µM and inactive = higher.

Columns and labels:
Test in all cases: NCI-60 cell line screen, 48 h
NCI-H23 = tested on: NCI-H23
SW-620 = tested on: SW-620
A549 = tested on: A549
SF-268 = tested on: SF-268
IGROV-1 = tested on: IGROV-1
MDA-MB-435 = tested on: MDA-MB-435
BT-549 = tested on: BT-549
HT-29 = tested on: HT-29
NCI-H460 = tested on: NCI-H460
TK-10 = tested on: TK-10
A498 = tested on: A498
EKVX = tested on: EKVX
MCF7 = tested on: MCF7
Malme-3M = tested on: Malme-3M
OVCAR-3 = tested on: OVCAR-3
COLO 205 = tested on: COLO 205
DU-145 = tested on: DU-145
OVCAR-4 = tested on: OVCAR-4
UACC-257 = tested on: UACC-257
786-0 = tested on: 786-0

SMILES	GI50 (NCI-H23)	GI50 (SW-620)	GI50 (A549)	GI50 (SF-268)	GI50 (IGROV-1)	GI50 (MDA-MB-435)	GI50 (BT-549)	GI50 (HT-29)	GI50 (NCI-H460)	GI50 (TK-10)	GI50 (A498)	GI50 (EKVX)	GI50 (MCF7)	GI50 (Malme-3M)	GI50 (OVCAR-3)	GI50 (COLO 205)	GI50 (DU-145)	GI50 (OVCAR-4)	GI50 (UACC-257)	GI50 (786-0)
COc1cccc(/N=C/c2cc(OC)c(OC)c(OC)c2)c1	> 100 µM (inactive)	> 100 µM (inactive)	> 100 µM (inactive)	> 100 µM (inactive)	> 100 µM (inactive)	18.8 µM (inactive)	72.6 µM (inactive)	91.2 µM (inactive)	64.9 µM (inactive)	> 100 µM (inactive)	> 100 µM (inactive)	> 86.7 µM (inactive)	56.9 µM (inactive)	> 100 µM (inactive)	1 µM (active)	17.8 µM (inactive)	> 100 µM (inactive)	> 79.6 µM (inactive)	> 100 µM (inactive)	> 100 µM (inactive)
COC(=O)c1cc(O)c(O)c(O)c1-c1c(O)c(O)c(O)c(SC[C@H](NC(=O)OCc2ccccc2)C(=O)OCc2ccccc2)c1C(=O)OC	22 µM (inactive)	23.8 µM (inactive)	17.9 µM (inactive)	25.9 µM (inactive)	28.8 µM (inactive)	11.1 µM (inactive)	34.7 µM (inactive)	28.3 µM (inactive)	29.2 µM (inactive)	67.9 µM (inactive)	31.5 µM (inactive)	19.7 µM (inactive)	18 µM (inactive)	78.5 µM (inactive)	34 µM (inactive)	22.6 µM (inactive)	39.2 µM (inactive)	26.5 µM (inactive)	32.8 µM (inactive)	18.6 µM (inactive)
O=C(CSc1nnc(SCC(=O)NN=C2CCCCC2)s1)NN=C1CCCCC1	> 100 µM (inactive)	> 100 µM (inactive)	> 100 µM (inactive)	> 100 µM (inactive)	> 100 µM (inactive)	> 100 µM (inactive)	> 100 µM (inactive)	> 100 µM (inactive)	> 100 µM (inactive)	> 100 µM (inactive)	> 100 µM (inactive)	> 100 µM (inactive)	> 100 µM (inactive)	> 100 µM (inactive)	> 100 µM (inactive)	> 100 µM (inactive)	> 100 µM (inactive)	> 100 µM (inactive)	> 100 µM (inactive)	> 100 µM (inactive)
CC(C)(CCc1nc2ccccc2[nH]1)C(=O)O	> 100 µM (inactive)	> 100 µM (inactive)	> 100 µM (inactive)	> 100 µM (inactive)	> 100 µM (inactive)	> 100 µM (inactive)	> 100 µM (inactive)	> 100 µM (inactive)	> 100 µM (inactive)	> 100 µM (inactive)	> 49.2 µM (inactive)	> 100 µM (inactive)	> 100 µM (inactive)	> 100 µM (inactive)	> 100 µM (inactive)	> 100 µM (inactive)	> 100 µM (inactive)	> 100 µM (inactive)	> 100 µM (inactive)	> 100 µM (inactive)
